{
  "source": "patent US20230226121A1",
  "about": "“Honey Foam” (priority 2022, published 2023)",
  "origin": "cited, not measured here",
  "key": {"[1]": {"tested_on": "Escherichia Coli ATCC 25922"}, "[2]": {"tested_on": "Staphylococcus aureus ATCC 29213"}},
  "data": [
    {"smiles": "CCN(CC)CC(=O)Nc1c(C)cccc1C", "note": "[lidocaine]", "values": [
      {"measurement": "MIC", "setting": "[1]", "value": 5, "unit": "Mg/ml"},
      {"measurement": "MIC", "setting": "[2]", "value": 20, "unit": "Mg/ml"}
    ]}
  ]
}
